Measurements reported in patent publication US5574015A, “Isosteric antiherpes peptide derivatives” (priority 1994, dated 1996).

System: HSV-2
Test: Inhibition of Herpes Simplex Virus (HSV-2) replication in cell culture
Type: cell-based, HSV-2 strain HG-52
Method: Inhibition of Herpes Simplex Virus (HSV-2). Replication in Cell Culture
BHK-21/C13 cells (ATCC CCL 10) are incubated for two days in 150 cm^2 T-flasks (1.5×10^6 cells/flask) with alpha-MEM medium (Gibco Canada Inc., Burlington, Ontario, Canada) supplemented with 8% (v/v) fetal bovine serum (FBS, Gibco Canada Inc.). The cells are trypsinized and then transferred to fresh media in a 24 well plate to give 2.5×10^5 cells in 750 μL of media per well. The cells are incubated at 37° for a period of 6 h to allow them to adhere to the plate. Thereafter, the cells are washed once with 500 μL of alpha-MEM supplemented with 0.5% (v/v) FBS and then incubated with 750 μL of the see media (low serum) for 3 days. After this period of serum starvation, the low serum medium is removed and the cells are incubated in 500 μL of BBMT for 2 to 3 hours. {BBMT medium is described by P. Brazeau et al., Proc. Natl. Acad. Sci. USA, 79, 7909 (1982).} Thereafter, the cells are infected with HSV-2 (multiplicity of infection=0.02 PFU/cell) in 100 μL of BBMT medium. (Note: The HSV-2 used was strain HG-52, see Y. Langelier and G. Buttin, J. Gen. Virol., 57, 21 (1981); the virus was stored at -80°) Following 1 h of virus adsorption at 37°, the media is removed and the cells are washed with BBMT (3×250 μL). The cells in each well are incubated with or without (control) appropriate concentrations of the test agent dissolved in 200 μL of BBMT medium. After 29 h of incubation at 37°, the infected cells are harvested by first freezing the plate at -80°, followed by thawing. The cells in each well are scraped off the surface of the well with the help of the melting ice fragments. After complete thawing, the cell suspensions are collected and each well is rinsed with 150 μL of BBMT medium. The viral sample (suspension plus washing) is sonicated gently for 4 min at 4°. Cell debris are removed by centrifugation (1000 times gravity for 10 minutes at 4°). The supernatant is collected and stored at -80° until determination of viral titer.
Viral titration was performed by a modification of the colorimetric assay method of M. Langlois et al., Journal of Biological Standardization, 14, 201 (1986).
More specifically, in a similar manner as described above, BHK-21/C13 cells are trypsinized and transferred to fresh media in a 96 well microtiter plate to give 20,000 cells in 100 μL of media per well. The cells in the prepared plate are incubated at 37° for 2 h. During that time, the viral sample is thawed and sonicated gently for 15 seconds, and log dilutions of the sample are prepared (1/5 sequential: 50 μL of the sample plus 200 μL of BBMT medium, sequential dilutions being done with a multichannel pipette.
On completion of the above 2 hour incubation of the BHK-21/C13 cells, the media is replaced with alpha-MEM medium supplemented with 3% (v/v) FBS. The cells are now ready to be infected with the various sample dilutions of virus. Aliquots (50 μL) of the various dilutions are transferred into the appropriate wells of the plate. The resulting infected cells are incubated for 2 days at 37°. Then 50 μL of a 0.15% (v/v) solution of neutral red dye in Hank's Balanced Salt Solution (pH 7.3, Gibco Canada Inc.) is added to each well. The prepared plate is incubated for 45 min at 37°. Medium from each well is then aspirated and the cells are washed once with 200 μL of Hank's Balanced Salt Solution. […]

[1] = Table II, BHK-21/C13 cells, 29 h incubation, 50% inhibition of virus replication
[2] = Table V, cell culture assay of example 11

## Nc1nc2c(ncn2COCCO)c(=O)[nH]1 [acyclovir, reference compound]
Human alphaherpesvirus 2, Table III, acyclovir + 2 μM of peptide (title peptide of example 6)
  EC50: 1.4 µM
Human alphaherpesvirus 2, Table III, acyclovir + 4 μM of peptide (title peptide of example 6)
  EC50: 0.9 µM
Human alphaherpesvirus 2, Table III, acyclovir + 6 μM of peptide (title peptide of example 6)
  EC50: 0.9 µM
Human alphaherpesvirus 2, Table III, acyclovir + 8 μM of peptide (title peptide of example 6)
  EC50: 0.8 µM
Human alphaherpesvirus 2, Table III, acyclovir + 10 μM of peptide (title peptide of example 6)
  EC50: 0.42 µM
Combination of acyclovir and title peptide of example 6, FIG. 1
  synergism by the isobole method: positive result
Combinations with title peptide of example 6, EC50's significantly lower than acyclovir alone
  action of the combination of acyclovir and the peptide versus acyclovir alone: synergistic action

## Et2 CHNHC(O)--Tbg--CH2 --(R)-CH(CH2 C(O)--CMe3)C(O)--Asp(cyPn)--NHCH2 CMe3
[1]
  EC50: 56 µM

## Et2 CHNHC(O)--Tbg--CH2 --(R)-CH{CH2 C(O)--(cyclopentyl)}C(O)--Asp(cyPn)--NHCH2 CMe3
[1]
  EC50: 50 µM

## Et2 CHNHC(O)--Tbg--CH2 --(S)-CH{CH2 C(O)--(pyrrolidino)}C(O)--Asp(cyPn)--γMeLeucinol
[1]
  EC50: 200 µM

## Me(CH2 =CH--CH2)2 CNHC(O)-Tbg-CH2 --(R)--CH(CH2 C(O)CMe3)C(O)-Asp(cyPn)-NHCH2 CMe3 [Me(CH2 =CHCH2)2 --CNHC(O), NHCH2 CMe3]
Table IV, cell culture assay of example 11
  EC50: 30 µM

## PhCH2 CH2 C(O)--(N--Me)Val--Tbg--CH2 --(R)-CH(CH2 C(O)CMe3)C(O)--Asp(cyPn)--γMeLeu--NH2
[1]
  EC50: 60 µM

## PhCH2 CH2 C(O)--(N--Me)Val--Tbg--CH2 --(R)-CH(CH2 C(O)CMe3)C(O)--Asp(cyPn)--γMeLeu--OH
[1]
  EC50: 65 µM

## PhCH2 CH2 C(O)--(N-Me)Val-Tbq-CH2 --(R)--CH(CH2 C(O)CMe3)C(O)-Asp(cyPn)-γMeLeucinol [Title Compound of Example 6]
[1]
  EC50: 15 µM
Table III, agent alone, BHK-21/C13 cells
  EC50: 19 µM

## Pr2 CHNHC(O)--NH--(S)-CH(CMe2 Et)--C(O)--CH2 --(R)-CH(CH2 C(O)CMe3)C(O)--Asp--(cyPn)--NH--(R)-CH(Me)CMe3
[2]
  EC50: 13 µM

## Pr2 CHNHC(O)--Tbg--CH2 --(R)-CH(CH2 --C(O)CHMe2)C(O)--Asp(cyPn)--NHCH2 CMe3
[2]
  EC50: 39 µM

## Pr2 CHNHC(O)--Tbg--CH2 --(R)-CH(CH2 --C(O)CMe2 Et)C(O)--Asb(cyPn)--NHCH2 --CMe3
[2]
  EC50: 33 µM

## Pr2 CHNHC(O)--Tbg--CH2 --(R)-CH(CH2 --C(O)CMe3)C(O)--Asp{(R)-Pr}--NHCH2 CMe3
[2]
  EC50: 46 µM

## Pr2 CHNHC(O)--Tbg--CH2 --(R)-CH(CH2 --C(O)CMe3)C(O)--Asp{(R)-allyl}--NHCH2 CMe3
[2]
  EC50: 62 µM

## Pr2 CHNHC(O)--Tbg--CH2 --(R)-CH(CH2 C(O)--CMe3)C(O)--Asp(cyPn)--NHCH2 CMe3
[1]
  EC50: 24 µM

## Pr2 CHNHC(O)--Tbg--CH2 --(R)-CH(CH2 C(O)--CMe3)C(O)--Asp(cyPn)--γMeLeucinol
[1]
  EC50: 30 µM

## Pr2 CHNHC(O)--Tbg--CH2 --(R)-CH--(CH2 C(O)CH2 CMe3)C(CF)--Asp(cyPn)--Leu--OH
[2]
  EC50: 80 µM

## Pr2 CHNHC(O)--Tbg--CH2 --(R)-CH{CH2 --C(O)--(1-methylcyclopentyl)}C(O)--Asp(cyPn)--NHCH2 CMe3
[2]
  EC50: 35 µM

## Pr2 CHNHC(O)--Tbg--CH2 --(R)-CH{CH2 --C(O)--(cyclobutyl)}C(O)--Asp(cyPn)--NHCH2 CMe3
[2]
  EC50: 46 µM

## Pr2 CHNHC(O)--Tbg--CH2 --(R)-CH{CH2 --C(O)--(cyclohexyl)}C(O)--Asp(cyPn)--NHCH2 CMe3
[2]
  EC50: 61 µM

## Pr2 CHNHC(O)--Val--CH2 --(R)-CH(CH2 --C(O)CMe3)C(O)--Asp(cyPn)--NH--(R)-CH(Me)CMe3
[2]
  EC50: 37 µM
